Molecular target: T1, Interleukin-5 (Mus musculus) (UniProt P04401)
T1 sequence (whole entry): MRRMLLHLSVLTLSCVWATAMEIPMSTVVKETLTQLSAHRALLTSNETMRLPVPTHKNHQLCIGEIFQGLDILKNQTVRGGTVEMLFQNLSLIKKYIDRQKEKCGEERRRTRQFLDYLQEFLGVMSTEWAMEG
Assay: Inhibition of IL5-mediated proliferation of mouse Y16 cells at 50 uM by WST1 assay
Type: cell-based

SMILES | inhibition
CCc1ccc(/C=C2\Oc3cccc(OCC4CCCCC4)c3C2=O)cc1 | 3.8%
O=C1/C(=C/c2ccc(Cl)cc2)Oc2cccc(OCC3CCCCC3)c21 | 12.2%
COc1cc(-c2coc3cccc(OCC4CCCCC4)c3c2=O)ccc1O | 15.7%
O=Cc1ccc(/C=C2\Oc3cccc(OCC4CCCCC4)c3C2=O)cc1 | 8%
COc1ccc(-c2coc3cccc(OCC4CCCCC4)c3c2=O)cc1 | 15.4%
COc1cc(-c2coc3cccc(OCC4CCCCC4)c3c2=O)ccc1OCc1ccccc1 | 99.8%
COCOc1ccc(-c2coc3cccc(OCC4CCCCC4)c3c2=O)cc1 | 10.5%

The remaining lines, values ahead:

inhibition | SMILES
5.7% | O=C1/C(=C/c2ccc([N+](=O)[O-])cc2)Oc2cccc(OCC3CCCCC3)c21
3.5% | COC(=O)c1ccc(/C=C2\Oc3cccc(OCC4CCCCC4)c3C2=O)cc1
30.6% | COc1ccc(-c2coc3cccc(OCC4CCCCC4)c3c2=O)cc1OC
9.7% | CCc1ccc(-c2coc3cccc(OCC4CCCCC4)c3c2=O)cc1
3.1% | O=C1/C(=C/c2ccccc2)Oc2cccc(OCC3CCCCC3)c21
> 100% | COc1cc(-c2coc3cccc(OCC4CCCCC4)c3c2=O)cc(OC)c1OC
91.7% | O=c1c(-c2ccc(O)cc2)coc2cccc(OCC3CCCCC3)c12
92.1% | O=c1c(-c2ccc(O[C@@H]3O[C@H](CO)[C@@H](O)[C@H](O)[C@H]3O)cc2)coc2cc(O)cc(O)c12
15.6% | COc1ccc(-c2coc3cccc(OCC4CCCCC4)c3c2=O)c(OC)c1

— ChEMBL document CHEMBL1165948, “The scope of thallium nitrate oxidative cyclization of chalcones; synthesis and evaluation of isoflavone and aurone analogs for their inhibitory activity against interleukin-5” (Bioorg Med Chem, 2010)
